Patent US5252495A, “Immunoassay for physostigmine” (priority 1992, dated 1993)
Counter-ions that a name gives are not always drawn.

system: antibodies to physostigmine; assay: Specificity of the antibodies to physostigmine (both antibodies; RIA, HPLC-RIA); type: binding, New Zealand white rabbits; settings: not given
Experimental: (§1) Antibodies to the physostigmine-BSA immunogen were produced by injecting male New Zealand white rabbits with immunogens formed by either method. Prior to injection, the immunogen was emulsified with an equal volume of complete Freund's adjuvant, purchased from Difco Laboratories of Detroit, Mich. The initial immunization consisted of 0.8 mg of protein injected intracutaneously in multiple dorsal sites of the rabbits. Booster injections containing 0.8 mg of immunogen and incomplete Freund's adjuvant were administered every two months for the next six months. Antisera was collected one week after each booster injection from the central ear vein. The blood was allowed to clot at room temperature and then centrifuged at 1500×g for 15 minutes. The separated serum was stored frozen at -20° C. until assayed for the presence of physostigmine antibody.
In the assay procedure ^3 H-Physostigmine having specificity of 19.0 Ci/mmole and purchased from the Amersham Corp. of Arlington Heights, Ill., was used as tracer. The dilution of tracer (5000 dpm), antibody (1:150) and physostigmine standards (100-10,000 pg) were made using 0.01M phosphate buffer containing 150 mM sodium chloride with a pH of 7.4. […] Both standard and sample tubes were always analyzed in duplicate. […]
The HPLC system consisted of Waters Associates liquid chromatograph equipped with a 6000 A solvent delivery system, a Model 441 absorbance detector, a U6K injector, a model 720 system controller, an Omni Scribe recorder (Houston Instruments, Houston, Tex.), a model cygnet Fraction collector (ISCO, Lincoln, Nebr.).
High pressure liquid chromatography (HPLC) was performed using a model C18 u Bondapak column (30 cm×0.39 cm. lid) (waters). The Uv detector was fixed at 245 nm with range set at 0.005 absorbance units full scale and flow rate of the mobile phase adjusted to 2 ml/min. […]
The column was operated at ambient temperature. […] Each residue was then reconstituted using the assay buffer and was analyzed for physostigmine by the RIA. […]

Molecule | amount required to displace radioactive physostigmine from the antibodies, relative to physostigmine [times]
CN1CC[C@@]2(C)c3cc(O)ccc3N(C)[C@@H]12 [Eseroline, eseroline] | ~150

same assay, conditions: RIA

Molecule | binding to the antibodies
CN(C)C(=O)Oc1cccc([N+](C)(C)C)c1 [Neostigmine] | did not bind to the antibodies
CN(C)C(=O)Oc1ccc[n+](C)c1 [Pyridostigmine] | did not bind to the antibodies

biological target: Antibody from Mannich Immunogen; assay: RIA cross-reactivity: competition with labeled physostigmine for antibody from Mannich immunogen; type: binding, New Zealand white rabbits; settings: 1:100, max 1000 ng tested
Experimental: as §1
In the assay procedure ^3 H-Physostigmine having specificity of 19.0 Ci/mmole and purchased from the Amersham Corp. of Arlington Heights, Ill., was used as tracer. […] Both standard and sample tubes were always analyzed in duplicate. The assay was carried out according to the protocol shown in Table 1 with the reagents were added to the assay tubes in the order shown.
(§2) According to the protocol for the RIA of the present invention, after the addition of antisera, the contents of the tubes were mixed and incubated for 3 hours at 4° C. The antigen which bound to the antibody was separated by adding saturated ammonium sulfate and centrifuging at 2500×g for 15 minutes. After aspiration of the supernatant, the precipitate was washed one time with 50% saturated ammonium sulfate; then the mixture was centrifuged and the supernatent removed. The precipitate was dissolved in 1.0 ml of distilled water, and the solution was transferred to a scintillation vial containing 10.0 ml of acquasol 2.
(§3) The radioactivity which was bound to the antibody was determined in counts per minute with a Beckman LS-3133P Liquid Scintillation Counter. […] The concentration of physostigmine is plotted on the horizontal axis, while the percent inhibition of binding radioactively labeled is plotted on the vertical axis. […] Concentrations of physostigmine in unknown samples were determined according to conventional calculations from the standard curve.
(§4) Competition of the compounds with labeled physostigmine (5000 dpm) for antibody binding sites was determined arbitrarily at 50% inhibition of the physostigmine on the standard curve. Each compound was tested for cross-reactivity with the antibody. The maximum concentration of each compound tested was 1000 ng.

Molecule | IC50 (50% inhibition of binding of 3H-physostigmine) [ng]
CN1CCC2(C)c3cc4nc5c(=O)c6c(cc-5oc4cc3N(C)C12)N(C)C1N(C)CCC61C (centres unmarked) [Eserine blue] | 575
CN1CC[C@@]2(C)c3cc(O)ccc3N(C)[C@@H]12 [Eseroline, eseroline] | 200
COc1ccc2c(c1)c(CC(=O)O)c(C)n2C(=O)c1ccc(Cl)cc1 [Indomethacin] | > 1000
COc1ccc2[nH]cc(CCNC(C)=O)c2c1 [Melatonin] | > 1000
CN(C)C(=O)Oc1cccc([N+](C)(C)C)c1 [Neostigmine] | > 1000
C[n+]1ccccc1C=NO [Paralidoxime] | > 1000
CN(C)C(=O)Oc1ccc[n+](C)c1 [Pyridostigmine] | > 1000
CN1CC[C@@]2(C)C3=CC(=O)C(=O)C=C3N(C)[C@@H]12 [Rubreserine] | 248
NCCc1c[nH]c2ccc(O)cc12 [Serotonin] | > 1000
Eserine brown | 625

biological target: Antibody from Diazo-coupled Immunogen; assay: RIA cross-reactivity: competition with labeled physostigmine for antibody from diazo-coupled immunogen; type: binding, New Zealand white rabbits; settings: 1:150, max 1000 ng tested
Experimental: as §1
In the assay procedure ^3 H-Physostigmine having specificity of 19.0 Ci/mmole and purchased from the Amersham Corp. of Arlington Heights, Ill., was used as tracer. The dilution of tracer (5000 dpm), antibody (1:150) and physostigmine standards (100-10,000 pg) were made using 0.01M phosphate buffer containing 150 mM sodium chloride with a pH of 7.4. […] Both standard and sample tubes were always analyzed in duplicate. The assay was carried out according to the protocol shown in Table 1 with the reagents were added to the assay tubes in the order shown.
as §2, §3, §4

Molecule | IC50 (50% inhibition of binding of 3H-physostigmine) [ng]
CN1CCC2(C)c3cc4nc5c(=O)c6c(cc-5oc4cc3N(C)C12)N(C)C1N(C)CCC61C (centres unmarked) [Eserine blue] | 600
CN1CC[C@@]2(C)c3cc(O)ccc3N(C)[C@@H]12 [Eseroline, eseroline] | 200
COc1ccc2c(c1)c(CC(=O)O)c(C)n2C(=O)c1ccc(Cl)cc1 [Indomethacin] | > 1000
COc1ccc2[nH]cc(CCNC(C)=O)c2c1 [Melatonin] | > 1000
CN(C)C(=O)Oc1cccc([N+](C)(C)C)c1 [Neostigmine] | > 1000
C[n+]1ccccc1C=NO [Paralidoxime] | > 1000
CN(C)C(=O)Oc1ccc[n+](C)c1 [Pyridostigmine] | > 1000
CN1CC[C@@]2(C)C3=CC(=O)C(=O)C=C3N(C)[C@@H]12 [Rubreserine] | 224
NCCc1c[nH]c2ccc(O)cc12 [Serotonin] | > 1000
Eserine brown | 550

system: not given; assay: not given; settings: alkaline solutions; cited from earlier work

Molecule | stability in alkaline solutions
CNC(=O)Oc1ccc2c(c1)[C@]1(C)CCN(C)[C@@H]1N2C [Physostigmine salts] | unstable in alkaline solutions

same assay, conditions: cited from earlier work

Molecule | solubility in water
CNC(=O)Oc1ccc2c(c1)[C@]1(C)CCN(C)[C@@H]1N2C [Physostigmine salts] | soluble in water

same assay, conditions: rate enhanced in the presence of moisture; cited from earlier work

Molecule | color change upon exposure to air and light
CNC(=O)Oc1ccc2c(c1)[C@]1(C)CCN(C)[C@@H]1N2C [Physostigmine salts] | gradually turn red upon exposure to air and light
